Data as given in US20060069132A1, “Azolecarboxamide herbicides” (priority 2004, published 2006).

What was measured:
barnyardgrass [1] = assay: Test B flooded paddy test; type: in vivo, Echinochloa crus-galli; conditions: 1000 g ai/ha, scale 0 to 100 (0 no effect, 100 complete control)
Procedure, shortened: (§1)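 Read-out: visual comparison with controls, scored 0 to 100, where 100 means complete control and 0 no effect. Formulated chemicals were applied postemergence to plants 2–18 cm tall (1- to 4-leaf), or to flooded-paddy plants at the 2-leaf stage, then held 13 to 15 days under glass.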

wild oat = assay: Test B postemergence herbicide test; type: in vivo, Avena fatua; conditions: postemergence
Procedure, shortened: (§2)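 Greenhouse test; postemergence application to plants at 1–4 leaves (2–18 cm); paddy species at 2 leaves; evaluated visually vs controls at 13–15 days; scale 0–100 (100 = complete control).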

wheat = assay: Test B postemergence herbicide test; type: in vivo, Triticum aestivum; design: key to Wheat plant response rating: 0 = no effect, 100 = complete control; conditions: postemergence
Procedure, shortened: as §2

giant foxtail = assay: Test B pre-/postemergence herbicide test; type: in vivo, Setaria faberi; conditions: for Foxtail, Giant plant response rating: postemergence
Procedure, shortened: (§3)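 Evaluation is visual, comparing treated with control plants on a scale where 0 means no effect and 100 means full control. Treatments were preemergence, or postemergence on seedlings 2–18 cm tall, and held 13–15 days in the greenhouse.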

morningglory = assay: Test B pre-/postemergence herbicide test; type: in vivo, Ipomoea coccinea; conditions: for Morningglory plant response rating: postemergence
Procedure, shortened: (§4)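 Pre: seeds sown, then sprayed. Post: 1–4-leaf plants (2–18 cm) sprayed at the same time. Paddy: flooded, treated at 2-leaf stage. Formulation: non-phytotoxic solvent with surfactant. Greenhouse 13–15 days; visual 0–100 score relative to controls.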

barnyardgrass [2] = assay: Test B pre-/postemergence herbicide test; type: in vivo, Echinochloa crus-galli; conditions: for Barnyardgrass plant response rating: postemergence, scale 0 (no effect) to 100 (complete control)
Procedure, shortened: as §4

rice [3] = assay: Test B flooded paddy test; type: in vivo, Oryza sativa; conditions: 1000 g ai/ha, scale 0 to 100 (0 no effect, 100 complete control)
Procedure, shortened: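 Each value is a visual 0–100 response rating taken against controls 13 to 15 days after treatment in the greenhouse. Plants received formulated chemical postemergence at the 1- to 4-leaf stage or, in flooded paddy, at the 2-leaf stage.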

barnyardgrass [4] = assay: Test C flooded paddy test; type: in vivo, Echinochloa crus-galli
Procedure, shortened: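 Plants were grown to the 1- to 4-leaf stage (2–18 cm) and then treated postemergence, or grown to the 2-leaf stage for the flooded paddy test. They were held in a greenhouse for 12 to 14 days and then scored by eye against controls, where 0 is no effect and 100 is complete control.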

rice [5] = assay: Test C flooded paddy test; type: in vivo, Oryza sativa
Procedure, shortened: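 Injury scored visually against controls on a 0 (no effect) to 100 (complete control) scale, 12 to 14 days after treatment in greenhouse. Flooded paddy plants treated at 2-leaf stage; postemergence plants at 1- to 4-leaf stage, 2 to 18 cm tall.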

rice [6] = assay: Test B pre-/postemergence herbicide test; type: in vivo, Oryza sativa; conditions: 0 = no effect, 100 = complete control, preemergence
Procedure, shortened: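 Plants compared with untreated controls 13–15 days post-treatment and given a visual 0–100 injury score. Applications: preemergence to seeds; postemergence at 1- to 4-leaf (2–18 cm); paddy species flooded, 2-leaf stage. Vehicle non-phytotoxic, surfactant included.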

velvetleaf = assay: Test B pre-/postemergence herbicide test; type: in vivo, Abutilon theophrasti; conditions: for Velvetleaf plant response rating: postemergence
Procedure, shortened: as §3

ducksalad [7] = assay: Test B flooded paddy test; type: in vivo, Heteranthera limosa; conditions: 1000 g ai/ha, scale 0 to 100 (0 no effect, 100 complete control)
Procedure, shortened: as §1

blackgrass = assay: Test B postemergence herbicide test; type: in vivo, Alopecurus myosuroides; conditions: postemergence, visual rating, scale 0 (no effect) to 100 (complete control)
Procedure, shortened: as §1

cocklebur = assay: Test B pre-/postemergence herbicide test; type: in vivo, Xanthium strumarium; conditions: for Cocklebur plant response rating: postemergence, scale 0 (no effect) to 100 (complete control)
Procedure, shortened: as §4

[8] = tested on: smallflower umbrella sedge; assay: Test C flooded paddy test; type: in vivo, Cyperus difformis
corn = assay: Test B pre-/postemergence herbicide test; type: in vivo, Zea mays; conditions: for Corn plant response rating: postemergence
Procedure, shortened: as §3

ducksalad [9] = assay: Test C flooded paddy test; type: in vivo, Heteranthera limosa
large crabgrass = assay: Test B pre-/postemergence herbicide test; type: in vivo, Digitaria sanguinalis; conditions: for Crabgrass, Large plant response rating: postemergence
Procedure, shortened: as §3

[10] = tested on: small flower umbrella sedge; assay: Test B flooded paddy test; type: in vivo, Cyperus difformis; conditions: 1000 g ai/ha, scale 0 to 100 (0 no effect, 100 complete control)
Procedure, shortened: as §1

pigweed = assay: Test B pre-/postemergence herbicide test; type: in vivo, Amaranthus retroflexus; conditions: for Pigweed plant response rating: postemergence
Procedure, shortened: as §3

lambsquarters = assay: Test B pre-/postemergence herbicide test; type: in vivo, Chenopodium album; conditions: for Lambsquarters plant response rating: postemergence
Procedure, shortened: as §3

Surinam grass = assay: Test B pre-/postemergence herbicide test; type: in vivo, Urochloa decumbens; conditions: for Surinam Grass plant response rating: postemergence
Procedure, shortened: as §3

[11] = 125 g ai/ha, visual rating, scale 0 (no effect) to 100 (complete control)
[12] = 500 g ai/ha, scale 0 to 100, 0 is no effect, 100 is complete control
[13] = 125 g ai/ha, 0 = no effect, 100 = complete control, preemergence
[14] = 500 g ai/ha, visual rating, 0 = no effect, 100 = complete control, preemergence
[15] = 125 g ai/ha, scale 0 to 100 (0 no effect, 100 complete control)
[16] = 250 g ai/ha, scale of 0 to 100, 0 is no effect, 100 is complete control
[17] = 500 g ai/ha, visual rating after 12 to 14 days, scale 0 to 100 (0 no effect, 100 complete control)

CCNC(=O)c1cncc(NC(=O)c2cc(C(C)(C)C)nn2CC)c1 [Compound 259]
Barnyardgrass plant response rating (barnyardgrass [1]): 30 | Oat, Wild plant response rating (wild oat; [11]): 10 | Oat, Wild plant response rating (wild oat; [12]): 20 | Wheat plant response rating (wheat; [11]): 10 | Wheat plant response rating (wheat; [12]): 20 | Foxtail, Giant plant response rating (0 to 100 scale) (giant foxtail; [13]): 0 | Plant response rating, Foxtail, Giant (giant foxtail; [14]): 70 | Foxtail, Giant plant response rating (giant foxtail; [11]): 0 | Foxtail, Giant plant response rating (giant foxtail; [12]): 0 | Morningglory plant response rating (0 to 100 scale) (morningglory; [13]): 0 | Plant response rating, Morningglory (morningglory; [14]): 90 | Morningglory plant response rating (morningglory; [11]): 0 | Morningglory plant response rating (morningglory; [12]): 0 | Barnyardgrass plant response rating (0 to 100 scale) (barnyardgrass [2]; [13]): 0 | Plant response rating, Barnyardgrass (barnyardgrass [2]; [14]): 70 | Barnyardgrass plant response rating (barnyardgrass [2]; 125 g ai/ha, visual rating): 0 | Barnyardgrass plant response rating (barnyardgrass [2]; 500 g ai/ha, visual rating): 0 | Rice plant response rating (rice [3]): 70 | Barnyardgrass plant response rating (barnyardgrass [4]; 62 g ai/ha, scale 0 to 100 (0 no effect, 100 complete control)): 0 | Barnyardgrass plant response rating (barnyardgrass [4]; [15]): 0 | Barnyardgrass plant response rating (barnyardgrass [4]; [16]): 0 | Plant response rating, Barnyardgrass (barnyardgrass [4]; [17]): 0 | Rice plant response rating (rice [5]; 62 g ai/ha, scale 0 to 100): 0 | Rice plant response rating (rice [5]; [15]): 0 | Rice plant response rating (rice [5]; [16]): 0 | Plant response rating, Rice (rice [5]; [17]): 0 | Rice plant response rating (0 to 100 scale) (rice [6]; 125 g ai/ha): 0 | Plant response rating, Rice (rice [6]; 500 g ai/ha, visual rating): 0 | Velvetleaf plant response rating (0 to 100 scale) (velvetleaf; [13]): 0 | Plant response rating, Velvetleaf (velvetleaf; [14]): 0 | Velvetleaf plant response rating (velvetleaf; [11]): 0 | Velvetleaf plant response rating (velvetleaf; [12]): 0 | Ducksalad plant response rating (ducksalad [7]): 90 | Blackgrass plant response rating (blackgrass; 125 g ai/ha): 10 | Blackgrass plant response rating (blackgrass; 500 g ai/ha): 20 | Cocklebur plant response rating (0 to 100 scale) (cocklebur; [13]): 0 | Plant response rating, Cocklebur (cocklebur; [14]): 0 | Cocklebur plant response rating (cocklebur; 125 g ai/ha, visual rating): 0 | Cocklebur plant response rating (cocklebur; 500 g ai/ha, visual rating): 20 | Sedge, Umbrella plant response rating ([8]; 62 g ai/ha, scale 0 to 100): 0 | Sedge, Umbrella plant response rating [8, 15]: 35 | Sedge, Umbrella plant response rating [8, 16]: 55 | Plant response rating, Sedge, Umbrella [8, 17]: 70 | Corn plant response rating (0 to 100 scale) (corn; [13]): 0 | Plant response rating, Corn (corn; [14]): 0 | Corn plant response rating (corn; [11]): 10 | Corn plant response rating (corn; [12]): 20 | Ducksalad plant response rating (ducksalad [9]; 62 g ai/ha, scale 0 to 100): 0 | Ducksalad plant response rating (ducksalad [9]; [15]): 60 | Ducksalad plant response rating (ducksalad [9]; [16]): 65 | Plant response rating, Ducksalad (ducksalad [9]; [17]): 75 | Crabgrass, Large plant response rating (0 to 100 scale) (large crabgrass; [13]): 0 | Plant response rating, Crabgrass, Large (large crabgrass; [14]): 50 | Crabgrass, Large plant response rating (large crabgrass; [11]): 0 | Crabgrass, Large plant response rating (large crabgrass; [12]): 20 | Sedge, Umbrella plant response rating [10]: 70 | Pigweed plant response rating (0 to 100 scale) (pigweed; [13]): 0 | Plant response rating, Pigweed (pigweed; [14]): 100 | Pigweed plant response rating (pigweed; [11]): 30 | Pigweed plant response rating (pigweed; [12]): 90 | Lambsquarters plant response rating (0 to 100 scale) (lambsquarters; [13]): 0 | Lambsquarters plant response rating (lambsquarters; [11]): 10 | Lambsquarters plant response rating (lambsquarters; [12]): 30 | Surinam Grass plant response rating (0 to 100 scale) (Surinam grass; [13]): 0 | Plant response rating, Surinam Grass (Surinam grass; [14]): 30 | Surinam Grass plant response rating (Surinam grass; [11]): 10 | Surinam Grass plant response rating (Surinam grass; [12]): 20
